Results taken from patent US8129527B2, “Analogs of dehydrophenylahistins and their therapeutic use” (Nereus Pharmacuticals, Inc., priority 2006, dated 2012).

Legend:
[1] = tested on: HT-29 cells; experiment: Additional cytotoxicity assays, resazurin (Table 3.1); assay type: cell-based, human; conditions: Table 3.1
Method in brief: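 Cells exposed 48 hours to compounds at final concentrations 2.0×10^−5 M to 2.0×10^−10 M, in triplicate. Viability then read as resazurin fluorescence after 3-4 hours with dye; cell-free dye background subtracted.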

[2] = tested on: B16-F10 melanoma; experiment: Cell growth inhibition assay, resazurin (Example 11); assay type: cell-based; conditions: Mus musculus, 48 hours, mean ± SD where n ≧ 3
Method: (§1) The growth inhibitory activity of NPI-2421, NPI-2463, NPI-2503 and NPI-2504 were determined against selected human (colorectal adenocarcinoma, HT-29; breast adenocarcinoma, MDA-MB-231; non-small cell lung carcinoma, NCI-H292 and prostate carcinomas, PC-3 and DU 145) and mouse (melanoma, B16-F10) tumor cell lines.
(§2) HT-29 (HTB-38), MDA-MB-231 (HTB-26), NCI-H292 (CRL-1848), B16-F10 (CRL-6475), PC-3 (CRL-1435) and DU 145 (HTB-81) cells were all purchased from the ATCC. The cell lines were maintained in their respective ATCC recommended culture media and cultured in an incubator at 37° C. in 5% CO2 and 95% humidified air.
(§3) 20 mM stock solutions of compounds were prepared in 100% DMSO and stored at −80° C. 10× concentrated serial dilutions of the compounds were prepared in B16-F10 cell culture medium for final concentrations ranging from 20 μM to […]. Ten μl volumes of the 10× serial dilutions were added to the test wells in triplicate and the plates returned to the incubator for 48 hours. The final concentration of DMSO was 0.25% in all samples.
(§4) Following 48 hours of drug exposure, 10 μl of 0.2 mg/ml resazurin (obtained from Sigma-Aldrich Chemical Co.) in Mg^2+, Ca^2+ free phosphate buffered saline was added to each well and the plates were returned to the incubator for 3-6 hours. […] Resazurin dye in medium without cells was used to determine the background, which was subtracted from the data for all experimental wells.

[3] = tested on: DU 145 prostate carcinoma; experiment: as above; assay type: cell-based; conditions: Homo sapiens, 48 hours
Method: as §1, §2, §3, §4

[4] = tested on: HT-29 colorectal adenocarcinoma; experiment: as above; assay type: cell-based; conditions: Homo sapiens, 48 hours, mean ± SD where n ≧ 3
Method: as §1, §2, §3, §4

[5] = tested on: MDA-MB-231 breast adenocarcinoma; experiment: as above; assay type: cell-based; conditions: Homo sapiens, 48 hours, mean ± SD where n ≧ 3
Method: as §1, §2, §3, §4

[6] = tested on: NCI-H292 non-small cell lung carcinoma; experiment: as above; assay type: cell-based; conditions: Homo sapiens, 48 hours, mean ± SD where n ≧ 3, ** n = 1
Method: as §1, §2, §3, §4

[7] = tested on: PC-3 prostate carcinoma; experiment: as above; assay type: cell-based; conditions: Homo sapiens, 48 hours, mean ± SD where n ≧ 3, ** n = 1
Method: as §1, §2, §3, §4

[8] = tested on: MES-SA human uterine sarcoma; experiment: as above; assay type: cell-based; conditions: mean ± standard deviation of three independent experiments
[9] = tested on: MES-SA/Dx5 multidrug resistant; experiment: as above; assay type: cell-based, human; conditions: for EC50: Homo sapiens, MES-SA/Dx5, mean ± standard deviation of three independent experiments; for cytotoxic activity against both MES-SA and MES-SA/Dx5: in words; for Fold change: ratio of EC50 values (MES-SA/Dx5:MES-SA)
[10] = tested on: HL-60 human acute promyelocytic leukemia cells; experiment: as above; assay type: cell-based; conditions: mean values of two independent experiments
Method: Human uterine sarcoma (MES-SA; CRL-1976), its multidrug resistant derivative (MES-SA/Dx5; CRL-1977), human acute promyelocytic leukemia cells (HL-60; CCL-240) and its multidrug resistant derivative (HL-60/MX2; CRL-2257) were purchased from ATCC and maintained in appropriate culture media. The cells were cultured in an incubator at 37° C. in 5% CO2 and 95% humidified air.
For cell growth inhibition assays, MES-SA and MES-SA/Dx5 cells were both seeded at 3×10^3 cells/well in 90 μl complete media into 96 well (Corning; 3904) black-walled, clear-bottom tissue culture plates and the plates were incubated overnight to allow cells to establish and enter log phase growth. HL-60 and HL-60/MX2 cells were both seeded at 5×10^4 cells/well in 90 μl complete media into 96 well plates on the day of compound addition. 20 mM stock solutions of the compounds were prepared in 100% DMSO and stored at −80° C. […] Ten μl volumes of the 10× serial dilutions were added to the test wells in triplicate and the plates returned to the incubator for 48 hours. The final concentration of DMSO was 0.25% in all samples.
as §4
HL-60/MX2 is a multidrug resistant tumor cell line derived from the human promyelocytic leukemia cell line, HL-60 and expresses reduced topoisomerase II activity. The data presented in Table 20 summarize the growth inhibitory effects of NPI-2421, NPI-2463, NPI-2503, NPI-2504 and NPI-2506 against HL-60 and its multidrug resistant derivative HL-60/MX2. Mitoxantrone, the topoisomerase II targeting agent was included as a control.

[11] = tested on: HL-60/MX2 multidrug resistant; experiment: as above; assay type: cell-based, human; conditions: for EC50: Homo sapiens, HL60/MX2, HL-60/MX2, mean values of two independent experiments; for cytotoxic activity against both HL-60 and HL-60/MX2: in words; for Fold change: ratio of EC50 values (HL-60/MX2:HL-60)
[12] = tested on: HuVECs; experiment: as above; assay type: cell-based, human; conditions: for EC50: Homo sapiens, HuVEC, 48 hours, mean values of two independent experiments; for cytotoxicity against HuVECs: in words
Method: The growth inhibitory activity of NPI-2421 and NPI-2463 were determined against human umbilical […] endothelial cells, HuVECs.
HuVECs (Cambrex Biosciences; CC2519A) were maintained in EGM-2 medium at 37° C. in 5% CO2 and 95% humidified air.
For cell growth inhibition assays, HuVECs were seeded at 1×10^3 cells/well in 90 μl complete media into a Corning 3904 black-walled, clear-bottom tissue culture plates and the plates were incubated overnight to allow cells to establish and enter log phase growth. 20 mM stock solutions of compounds were prepared in 100% DMSO and stored at −80° C. […] Ten μl volumes of the 10× serial dilutions were added to the test wells in triplicate and the plates returned to the incubator for 48 hours. The final concentration of DMSO was 0.25% in all samples.
as §4

[13] = tested on: HT-29 human colorectal carcinoma cells; experiment: Cell growth inhibition assay, resazurin (Table 3.2); assay type: cell-based; conditions: Table 3.2, HT-29 cells, read-out: EC50 (M) Mean
Method in brief: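 HT-29 cells seeded at 5×10^3/well overnight, then exposed in triplicate to compounds at final 20 μM to […] (0.25% DMSO) for 48 h at 37° C. Viability read by resazurin reduction after 3-4 h further incubation, with cell-free dye background subtracted.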

EC50 [2] [nM]	EC50 [3] [nM]	EC50 [4] [nM]	EC50 [5] [nM]	EC50 [6] [nM]	EC50 [7] [nM]	EC50 [8] [nM]	EC50 [10] [nM]	EC50 [11] [nM]	EC50 [13] [M]	SMILES	EC50 ([1]; Homo sapiens, HT-29, read-out: EC50 (M) Mean) [M]	% cytotox Mean [1] [%]	EC50 [9] [nM]	cytotoxic activity against both MES-SA and MES-SA/Dx5 [9]	Fold change [9]	cytotoxic activity against both HL-60 and HL-60/MX2 [11]	Fold change [11]	EC50 [12] [nM]	cytotoxicity against HuVECs [12]
19	25	21 ± 9	20 ± 6	41	> 2000	12 ± 3	23	14	–	CC(C)(C)c1ocnc1/C=c1\[nH]c(=O)/c(=C/c2ccccc2)[nH]c1=O [Compound 2421, tBu-delta-PLH-oxazole]	2.22e-08	88	17 ± 4	retained equivalent cytotoxic activity	1.4	retained cytotoxic activity	0.6	12	cytotoxic against HuVECs
14 ± 5	32	16 ± 3	25 ± 9	24 ± 11	13 ± 5	12 ± 4	26	14	1.71e-08	CC(C)(C)c1ocnc1/C=c1\[nH]c(=O)/c(=C/c2cccc(F)c2)[nH]c1=O [Compound 2463, tBu-Oxadelta-PLH-m-F]	–	–	14 ± 3	retained equivalent cytotoxic activity	1.2	retained cytotoxic activity	0.5	10	cytotoxic against HuVECs
